Experiment [1] relates to db/db mice. Briefly: Plasma N-glycan profile (GLYCANMAP, MALDI-TOF MS) of db/db mice treated with rosiglitazone, initial study (Table 1 summarises both rosiglitazone studies). The experiment is classed as in vivo, mouse. Particulars: first rosiglitazone study, db/db mice vs vehicle. Here is the method:
A 10 μl aliquot of each plasma sample was spiked with internal standard (700 pmol) and analyzed for N-linked glycans using Ezose Sciences' GLYCANMAP methodology. The samples were denatured and then digested with trypsin, followed by heat-inactivation. The mixture was then treated with PNGase F. After enzymatic release of N-glycans, aliquots were subjected to solid-phase processing using BLOTGLYCO beads. Following capture on the beads, the sialic acid residues were methyl esterified. The glycans were simultaneously released from the beads and labeled, and then aliquots of the recovered materials were spotted onto a MALDI target plate. […]
Rosigilitazone is a member of the athiazolidinedione class of anti-diabetic drugs, and is marketed by Glaxo under the trade name AVANDIA. […] A baseline (Day 0) sample was not analyzed in the initial rosiglitazone study, but was included in a subsequent rosiglitazone confirmatory study. […]
Several criteria were used in the initial rosiglitazone study to select the most promising biomarkers. Statistical significance was evaluated based on the Mann-Whitney test or Student's t-test and changes considered significant if the resulting p-value was less than 0.05. […] After the confirmatory rosiglitazone study, one glycan (530010) that had been excluded in the initial study was re-evaluated. […]

Experiment [2] has as its system db/db mice. As to the kind of experiment: Plasma N-glycan profile of db/db mice treated with insulin detemir. The class given is in vivo, mouse. Particulars: for Direction of change of hybrid glycan 430010 / Direction of change of hybrid glycan 530010 / Direction of change of hybrid glycan 630010: days 7, 14, 21, significant as early as Day 7; for Direction of change of high mannose glycan 520000 (Man5GlcNAc2) / Direction of change of high mannose glycan 620000 (Man6GlcNAc2) / Direction of change of high mannose glycan 720000 (Man7GlcNAc2) / Direction of change of high mannose glycan 820000 (Man8GlcNAc2): significant at Day 7, 14 and 21. On the procedure:
A 10 μl aliquot of each plasma sample was spiked with internal standard (700 pmol) and analyzed for N-linked glycans using Ezose Sciences' GLYCANMAP methodology. The samples were denatured and then digested with trypsin, followed by heat-inactivation. The mixture was then treated with PNGase F. After enzymatic release of N-glycans, aliquots were subjected to solid-phase processing using BLOTGLYCO beads. Following capture on the beads, the sialic acid residues were methyl esterified. The glycans were simultaneously released from the beads and labeled, and then aliquots of the recovered materials were spotted onto a MALDI target plate. Steps from initial aliquoting to spotting on the MALDI plate were performed using the fully automated SWEETBLOT technology. MALDI-TOF MS analysis was performed on an ultraflex III mass spectrometer (Bruker Daltonics) in the positive-ion, reflector mode. Each sample from the BLOTGLYCO bead processing step was spotted in quadruplicate, and spectra were obtained in an automated manner using the AutoXecute feature in flexControl software (Bruker Daltonics). Proposed glycan structures were assigned based on molecular weight. These methods have been described previously by Nishimura, Furukawa and Miura (Nishimura et al., Angew Chem. Int. Ed. Engl., 44: 91-96 (2004); Furukawa et al., Anal. Chem., 80: 1094-1101 (2008); Miura et al., Chem.-A Eur. J, 13: 4797-4804 (2007)). Alternatively, standard fluorescent HPLC or capillary electrophoresis methods with 2-AA, 2-AB, or APTS labeling can be used to monitor the glycan levels and changes in glycan patterns.
A further study was undertaken to evaluate the performance of candidate biomarkers discovered using rosiglitazone in mice treated with a diabetes drug having a different mechanism of action. The candidate biomarkers that were identified in Example 1 were evaluated in db/db mice treated with insulin detemir and vehicle.
Plasma samples were analyzed from ten db/db mice at baseline (0 days) and from 20 db/db mice (ten vehicle and ten insulin detemir-treated) at 7, 14, and 21 days. Sample preparation and analysis followed the protocol described in Example 1.
Concentrations of individual glycans in insulin detemir- and vehicle-treated db/db mice were compared at each time-point using the Student's t-test. N-glycans which yielded p-values<0.05 in this analysis were considered significant. Time-dependence was also evaluated for each of the candidate biomarkers by comparing each time-point to baseline.

Setting [3] is: db/db mice plasma vs vehicle, listed as Insulin Detemir.

Regarding `CN(CCOc1ccc(CC2SC(=O)NC2=O)cc1)c1ccccn1` (centres unmarked) [rosiglitazone], the “Time until highly significant difference (p<0.001) was achieved for HbA1c” value in experiment [1] was 21 days.
For insulin detemir, the “Changes in HbA1c compared with rosiglitazone” value in experiment [2] (db/db mice) is on record as “more subtle changes”. Moreover, the “Magnitude of changes in high-mannose glycans compared with rosiglitazone” value in experiment [2] (db/db mice plasma) is recorded as “lower in magnitude”. Also, in experiment [2] (db/db mice plasma vs vehicle), the “Changes in Glycan 540020” value is reported as “no significant changes”, the “Changes in O-acetylated N-glycans” value is listed as “no significant changes”, the “Changes in fucosylated N-glycans” value is on record as “no significant changes” and the “Direction of change of hybrid glycan 430010” value was “significant decreases”. Moreover, in experiment [2] (db/db mice plasma vs vehicle), the “Direction of change of hybrid glycan 530010” value is reported as “significant decreases”, the “Direction of change of hybrid glycan 630010” value is recorded as “significant decreases”, the “Direction of change of high mannose glycan 520000 (Man5GlcNAc2)” value is reported as “lower levels” and the “Direction of change of high mannose glycan 620000 (Man6GlcNAc2)” value was “lower levels”. Also, in experiment [2] (db/db mice plasma vs vehicle), the “Direction of change of high mannose glycan 720000 (Man7GlcNAc2)” value is listed as “lower levels” and the “Direction of change of high mannose glycan 820000 (Man8GlcNAc2)” value is on record as “lower levels”. Further, in experiment [2] (setting [3]), the “Direction of change of hybrid glycan 430010” value is “Decreased”, the “Direction of change of hybrid glycan 530010” value is listed as “Decreased”, the “Direction of change of hybrid glycan 630010” value is “Decreased” and the “Direction of change of high mannose glycan 520000 (Man5GlcNAc2)” value is given as “Decreased”. Besides, in experiment [2] (setting [3]), the “Direction of change of high mannose glycan 620000 (Man6GlcNAc2)” value is on record as “Decreased”, the “Direction of change of high mannose glycan 720000 (Man7GlcNAc2)” value is on record as “Decreased” and the “Direction of change of high mannose glycan 820000 (Man8GlcNAc2)” value is on record as “Decreased”.

The record behind these values is patent US20150072888A1, “Biomarkers For Diagnosis Of Diabetes And Monitoring Of Anti-Diabetic Therapy” (Sumitomo Bakelite Co., Ltd., priority 2012, published 2015).
